pIC50: −log10 of the molar value. Values after ≈ are worked out from the molar mass of the structure shown.

For one test, the target named is hACC2 (Homo sapiens, UniProt O00763). The test can be described thus: In vitro ACC2 inhibition assay (ADP-Glo), human ACC2. The format is biochemical. The settings on record: Table 2b (additional results). The method, boiled down: (§1)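 ADP-Glo luminescent ADP detection with 5 nM ACC2, 20 μM ATP, 20 μM acetyl-CoA, 12 mM NaHCO3, 2 mM DTT, 5% DMSO; compound (30 μM-0.00051 μM, 11 points) preincubated 15 min, reaction 60 min at room temperature. Percent inhibition against DMSO and positive controls; IC50 by four-parameter nonlinear fit.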

The subject of the next test is C. albicans ATCC 90028. The test can be described thus: Anti-Fungal (Candida) Activity Assay, broth microtiter MIC. The class given is cell-based. The following applies: ATCC90028, 48 h, Table 3b (additional results), 3 replicates, MIC read at 48 h. In short, it runs like this:
(§2)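 Broth microdilution per CLSI M27-A3 in RPMI 1640 + MOPS, at a final inoculum of 2.5×10^3 CFU/mL. Compound DMSO stocks were diluted in water to a 128 μg/mL working solution. MIC was read visually against the growth control at 48 h.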

Test [1] concerns C. parapsilosis ATCC 22019. The test is described as above. The class given is cell-based. The settings on record: Lodderomyces parapsilosis, ATCC22019, 48 h, Table 3b (additional results); 3 replicates; MIC read at 48 h. In short, it runs like this:
as §2

For the next test, the target named is fACC2 (UniProt Q00955). The test can be described thus: In vitro ACC2 inhibition assay (ADP-Glo), fungal ACC2. The settings on record: Table 2b (additional results). The format is biochemical. The method, boiled down:
as §1
(In general: ADP-Glo first removes unused ATP, then detects ADP through luciferase.)

Sequence of fACC2 (Q00955 whole entry): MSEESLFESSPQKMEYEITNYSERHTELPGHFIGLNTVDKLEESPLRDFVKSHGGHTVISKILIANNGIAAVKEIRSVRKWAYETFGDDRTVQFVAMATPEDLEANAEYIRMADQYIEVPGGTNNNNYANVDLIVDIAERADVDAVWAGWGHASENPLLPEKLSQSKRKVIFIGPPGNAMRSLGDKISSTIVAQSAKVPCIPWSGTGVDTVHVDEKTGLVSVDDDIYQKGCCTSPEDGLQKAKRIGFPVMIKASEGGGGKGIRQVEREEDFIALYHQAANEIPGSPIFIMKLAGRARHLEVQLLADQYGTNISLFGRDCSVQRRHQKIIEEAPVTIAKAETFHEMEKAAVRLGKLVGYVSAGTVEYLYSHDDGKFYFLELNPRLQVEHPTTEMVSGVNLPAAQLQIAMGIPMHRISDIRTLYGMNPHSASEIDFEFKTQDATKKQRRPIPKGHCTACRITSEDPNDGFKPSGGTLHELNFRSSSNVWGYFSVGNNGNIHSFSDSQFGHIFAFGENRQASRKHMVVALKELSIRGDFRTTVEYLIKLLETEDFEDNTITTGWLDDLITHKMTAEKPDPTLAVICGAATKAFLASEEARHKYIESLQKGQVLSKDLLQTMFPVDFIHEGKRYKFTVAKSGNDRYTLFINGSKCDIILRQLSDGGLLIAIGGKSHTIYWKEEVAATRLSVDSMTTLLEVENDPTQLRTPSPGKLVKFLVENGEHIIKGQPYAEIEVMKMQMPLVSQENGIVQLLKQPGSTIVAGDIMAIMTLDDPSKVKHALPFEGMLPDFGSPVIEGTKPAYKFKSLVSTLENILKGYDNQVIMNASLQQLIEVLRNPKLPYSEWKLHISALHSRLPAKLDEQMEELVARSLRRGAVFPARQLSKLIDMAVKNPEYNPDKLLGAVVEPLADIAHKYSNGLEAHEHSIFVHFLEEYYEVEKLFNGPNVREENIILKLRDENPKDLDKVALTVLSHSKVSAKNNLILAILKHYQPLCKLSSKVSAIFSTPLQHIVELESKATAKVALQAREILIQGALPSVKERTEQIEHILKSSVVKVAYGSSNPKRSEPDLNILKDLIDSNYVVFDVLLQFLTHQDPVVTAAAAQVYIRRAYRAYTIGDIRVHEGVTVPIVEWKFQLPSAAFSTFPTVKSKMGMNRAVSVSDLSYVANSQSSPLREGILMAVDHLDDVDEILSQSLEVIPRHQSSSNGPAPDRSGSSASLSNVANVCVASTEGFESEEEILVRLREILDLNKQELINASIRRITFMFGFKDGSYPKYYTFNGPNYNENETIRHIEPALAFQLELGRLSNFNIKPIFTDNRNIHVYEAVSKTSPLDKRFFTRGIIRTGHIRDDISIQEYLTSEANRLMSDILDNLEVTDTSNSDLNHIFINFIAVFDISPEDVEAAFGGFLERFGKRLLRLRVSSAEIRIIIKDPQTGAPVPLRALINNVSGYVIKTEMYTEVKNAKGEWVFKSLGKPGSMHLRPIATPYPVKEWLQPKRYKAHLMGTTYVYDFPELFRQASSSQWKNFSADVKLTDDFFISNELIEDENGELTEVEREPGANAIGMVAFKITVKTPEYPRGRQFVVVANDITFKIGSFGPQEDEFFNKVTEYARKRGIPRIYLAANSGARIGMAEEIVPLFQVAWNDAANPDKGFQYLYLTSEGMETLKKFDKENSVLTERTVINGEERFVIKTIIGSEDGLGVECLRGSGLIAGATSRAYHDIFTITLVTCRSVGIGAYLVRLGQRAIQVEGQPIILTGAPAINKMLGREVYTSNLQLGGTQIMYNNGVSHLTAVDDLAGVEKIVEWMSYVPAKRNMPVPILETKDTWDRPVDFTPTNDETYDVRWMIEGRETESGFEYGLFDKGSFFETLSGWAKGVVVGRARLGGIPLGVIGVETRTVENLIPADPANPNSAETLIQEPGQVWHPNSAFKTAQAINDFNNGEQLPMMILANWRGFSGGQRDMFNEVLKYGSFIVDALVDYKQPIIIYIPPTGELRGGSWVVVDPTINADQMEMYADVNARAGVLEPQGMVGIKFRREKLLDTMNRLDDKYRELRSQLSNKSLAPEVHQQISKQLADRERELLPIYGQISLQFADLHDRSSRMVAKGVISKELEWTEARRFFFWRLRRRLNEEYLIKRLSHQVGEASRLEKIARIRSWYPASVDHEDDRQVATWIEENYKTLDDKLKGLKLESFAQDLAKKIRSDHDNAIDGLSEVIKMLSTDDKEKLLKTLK
Sequence of hACC2 (O00763 whole entry): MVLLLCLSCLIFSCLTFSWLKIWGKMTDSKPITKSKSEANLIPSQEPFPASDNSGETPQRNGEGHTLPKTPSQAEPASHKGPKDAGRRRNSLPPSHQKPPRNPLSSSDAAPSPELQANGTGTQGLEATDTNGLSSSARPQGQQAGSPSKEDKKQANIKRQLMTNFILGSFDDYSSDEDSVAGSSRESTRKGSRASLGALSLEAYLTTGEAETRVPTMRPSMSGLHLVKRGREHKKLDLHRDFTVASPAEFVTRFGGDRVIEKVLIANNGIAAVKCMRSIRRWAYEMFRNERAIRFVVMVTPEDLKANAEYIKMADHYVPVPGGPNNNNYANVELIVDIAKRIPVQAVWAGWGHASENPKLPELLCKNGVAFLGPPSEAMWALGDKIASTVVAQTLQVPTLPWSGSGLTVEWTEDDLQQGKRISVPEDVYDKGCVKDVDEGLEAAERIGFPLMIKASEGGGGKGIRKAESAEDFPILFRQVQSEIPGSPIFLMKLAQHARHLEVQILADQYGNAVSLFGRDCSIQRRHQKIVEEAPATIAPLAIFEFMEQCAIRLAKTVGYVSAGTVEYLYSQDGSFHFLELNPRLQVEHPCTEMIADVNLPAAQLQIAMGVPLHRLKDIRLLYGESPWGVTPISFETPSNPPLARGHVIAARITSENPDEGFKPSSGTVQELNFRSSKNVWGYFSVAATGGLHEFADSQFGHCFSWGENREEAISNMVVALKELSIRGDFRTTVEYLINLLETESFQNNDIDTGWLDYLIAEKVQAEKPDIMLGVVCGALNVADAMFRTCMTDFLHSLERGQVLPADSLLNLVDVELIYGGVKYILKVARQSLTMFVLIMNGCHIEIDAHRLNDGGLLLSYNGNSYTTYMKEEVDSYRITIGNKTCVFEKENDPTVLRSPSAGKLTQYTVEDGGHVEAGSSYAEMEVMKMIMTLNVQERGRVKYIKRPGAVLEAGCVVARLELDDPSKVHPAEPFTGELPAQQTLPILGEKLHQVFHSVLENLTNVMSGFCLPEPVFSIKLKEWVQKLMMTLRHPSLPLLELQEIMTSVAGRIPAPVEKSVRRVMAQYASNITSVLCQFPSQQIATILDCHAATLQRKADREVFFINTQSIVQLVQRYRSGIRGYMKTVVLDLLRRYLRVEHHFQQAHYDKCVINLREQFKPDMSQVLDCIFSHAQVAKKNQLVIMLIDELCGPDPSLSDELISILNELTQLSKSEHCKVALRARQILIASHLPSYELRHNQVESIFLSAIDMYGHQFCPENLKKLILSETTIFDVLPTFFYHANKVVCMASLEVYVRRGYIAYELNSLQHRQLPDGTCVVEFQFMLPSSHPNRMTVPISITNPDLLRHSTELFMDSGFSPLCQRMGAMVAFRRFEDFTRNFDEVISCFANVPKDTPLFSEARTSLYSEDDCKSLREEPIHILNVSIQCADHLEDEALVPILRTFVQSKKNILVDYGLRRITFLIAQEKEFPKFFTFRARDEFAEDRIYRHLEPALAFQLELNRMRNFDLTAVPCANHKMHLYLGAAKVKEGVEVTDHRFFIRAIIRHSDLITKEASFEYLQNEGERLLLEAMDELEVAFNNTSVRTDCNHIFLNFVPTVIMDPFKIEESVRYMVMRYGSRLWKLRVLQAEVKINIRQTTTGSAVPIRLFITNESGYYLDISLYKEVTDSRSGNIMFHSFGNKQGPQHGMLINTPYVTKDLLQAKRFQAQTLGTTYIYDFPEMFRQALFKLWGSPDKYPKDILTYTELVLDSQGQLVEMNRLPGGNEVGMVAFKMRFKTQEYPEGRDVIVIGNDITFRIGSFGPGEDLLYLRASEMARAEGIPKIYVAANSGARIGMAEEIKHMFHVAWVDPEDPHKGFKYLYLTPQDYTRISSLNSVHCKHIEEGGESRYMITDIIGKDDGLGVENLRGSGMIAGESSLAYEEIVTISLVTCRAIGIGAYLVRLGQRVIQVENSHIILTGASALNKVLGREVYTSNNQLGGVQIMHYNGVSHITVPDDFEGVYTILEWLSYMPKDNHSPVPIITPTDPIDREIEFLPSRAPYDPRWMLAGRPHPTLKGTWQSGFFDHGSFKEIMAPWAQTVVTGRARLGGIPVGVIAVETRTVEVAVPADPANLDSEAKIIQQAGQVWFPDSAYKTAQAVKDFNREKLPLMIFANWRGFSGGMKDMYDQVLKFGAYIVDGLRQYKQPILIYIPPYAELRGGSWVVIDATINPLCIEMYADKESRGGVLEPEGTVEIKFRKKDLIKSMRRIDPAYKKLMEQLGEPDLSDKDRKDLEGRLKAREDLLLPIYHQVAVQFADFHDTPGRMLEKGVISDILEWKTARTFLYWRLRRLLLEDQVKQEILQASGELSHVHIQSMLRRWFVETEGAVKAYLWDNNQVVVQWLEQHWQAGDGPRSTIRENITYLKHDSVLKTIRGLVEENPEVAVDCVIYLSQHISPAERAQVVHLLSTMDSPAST

With `CCOC(=O)c1sc2c(c1C)c(=O)n([C@@H](C)C(=O)NC(C)C)c(=O)n2C[C@H](OCCC#N)c1cc(F)ccc1OC` [Compound I-20, ethyl 1-((R)-2-(2-cyanoethoxy)-2-(5-fluoro-2-methoxy-phenyl)ethyl)-3-((S)-1-(isopropylamino)-1-oxopropan-2-yl)-5-methyl-2,4-dioxo-1,2,3,4-tetrahydrothieno[2,3-d]pyrimidine-6-carboxylate], the negative logarithm of the IC50 (pIC50) against hACC2 was 8.00 to 8.52; on fACC2, 8.52 to 9.52. The minimum inhibitory concentration (MIC) (with C. albicans ATCC 90028; in test [1]) was 2.1 to 4 µg/mL (≈ 3.57 to 6.8 µM) throughout.

Take `CCOC(=O)c1sc2c(c1C)c(=O)n([C@H](C)C(=O)NC(C)C)c(=O)n2C[C@H](OCCC#N)c1cc(F)ccc1OC` [Compound I-21, ethyl 1-((R)-2-(2-cyanoethoxy)-2-(5-fluoro-2-methoxyphenyl)ethyl)-3-((R)-1-(isopropylamino)-1-oxopropan-2-yl)-5-methyl-2,4-dioxo-1,2,3,4-tetrahydrothieno[2,3-d]pyrimidine-6-carboxylate]: the negative-log IC50 (pIC50) on hACC2 and at fACC2 was 8.52 to 9.52 each time. Besides, the MIC in the test on C. albicans ATCC 90028 was 1.1 to 2 µg/mL (≈ 1.87 to 3.4 µM); in test [1] it was 2.1 to 4 µg/mL (≈ 3.57 to 6.8 µM).

In the case of `CCOC(=O)c1sc2c(c1C)c(=O)n(C(C)(C)C(=O)N1CCCC1)c(=O)n2C[C@H](O)c1cc(F)ccc1OC` [Compound I-22, (R)-ethyl 1-(2-(5-fluoro-2-methoxyphenyl)-2-hydroxyethyl)-5-methyl-3-(2-methyl-1-oxo-1-(pyrrolidin-1-yl)propan-2-yl)-2,4-dioxo-1,2,3,4-tetrahydrothieno[2,3-d]pyrimidine-6-carboxylate], the figures for the pIC50 on hACC2 and against fACC2 were 7.40 to 8.00 and 8.52 to 9.52, respectively. Besides, the figures for the minimal inhibitory concentration (MIC) (against C. albicans ATCC 90028; in test [1]) were 2.1 to 4 µg/mL (≈ 3.74 to 7.12 µM) and 0.25 to 1 µg/mL (≈ 0.445 to 1.78 µM), respectively.

On to `CCOC(=O)c1sc2c(c1C)c(=O)n([C@@H](C)C(=O)N1CCCC1)c(=O)n2C[C@H](OCCC#N)c1cc(F)ccc1OC` [Compound I-23, ethyl 1-((R)-2-(2-cyanoethoxy)-2-(5-fluoro-2-methoxy-phenyl)ethyl)-5-methyl-2,4-dioxo-3-((S)-1-oxo-1-(pyrrolidin-1-yl)propan-2-yl)-1,2,3,4-tetrahydrothieno[2,3-d]pyrimidine-6-carboxylate], for which the pIC50 against hACC2 and against fACC2 was 8.00 to 8.52 throughout. The MIC against C. albicans ATCC 90028 is 2.1 to 4 µg/mL (≈ 3.5 to 6.66 µM); in test [1], greater than 4.1 µg/mL.

For `CCOC(=O)c1sc2c(c1C)c(=O)n([C@H](C)C(=O)N1CCCC1)c(=O)n2C[C@H](OCCC#N)c1cc(F)ccc1OC` [Compound I-24, ethyl 1-((R)-2-(2-cyanoethoxy)-2-(5-fluoro-2-methoxy-phenyl)ethyl)-5-methyl-2,4-dioxo-3-((R)-1-oxo-1-(pyrrolidin-1-yl)propan-2-yl)-1,2,3,4-tetrahydrothieno[2,3-d]pyrimidine-6-carboxylate], the pIC50 was 8.00 to 8.52 at hACC2 and 8.52 to 9.52 against fACC2. In addition, the MIC was in the range of 2.1 to 4 µg/mL (≈ 3.5 to 6.66 µM) in the test with C. albicans ATCC 90028 and 0.25 to 1 µg/mL (≈ 0.416 to 1.66 µM) in test [1].

Turning to `CCOC(=O)c1sc2c(c1C)c(=O)n([C@@H](C)C(N)=O)c(=O)n2C[C@H](OCCC#N)c1cc(F)ccc1OC` [Compound I-25, ethyl 3-((S)-1-amino-1-oxopropan-2-yl)-1-((R)-2-(2-cyanoethoxy)-2-(5-fluoro-2-methoxyphenyl)ethyl)-5-methyl-2,4-dioxo-1,2,3,4-tetrahydrothieno[2,3-d]pyrimidine-6-carboxylate], the pIC50 on hACC2 is 8.00 to 8.52; against fACC2 it was 8.52 to 9.52. The MIC (in the test on C. albicans ATCC 90028; in test [1]) was 2.1 to 4 µg/mL (≈ 3.84 to 7.32 µM) throughout.

For `CCOC(=O)c1sc2c(c1C)c(=O)n([C@H](C)C(N)=O)c(=O)n2C[C@H](OCCC#N)c1cc(F)ccc1OC` [Compound I-26, ethyl 3-((R)-1-amino-1-oxopropan-2-yl)-1-((R)-2-(2-cyanoethoxy)-2-(5-fluoro-2-methoxyphenyl)ethyl)-5-methyl-2,4-dioxo-1,2,3,4-tetrahydrothieno[2,3-d]pyrimidine-6-carboxylate], the pIC50 against hACC2 is 8.00 to 8.52; on fACC2, 8.52 to 9.52. Further, the MIC with C. albicans ATCC 90028 is 2.1 to 4 µg/mL (≈ 3.84 to 7.32 µM); in test [1], greater than 4.1 µg/mL.

With `CCOC(=O)c1sc2c(c1C)c(=O)n([C@H](C)C(=O)N(C)C(C)C)c(=O)n2C[C@H](OCCC#N)c1cc(F)ccc1OC` [Compound I-27, ethyl 1-((R)-2-(2-cyanoethoxy)-2-(5-fluoro-2-methoxy-phenyl)ethyl)-3-((R)-1-(isopropyl(methyl)amino)-1-oxopropan-2-yl)-5-methyl-2,4-dioxo-1,2,3,4-tetrahydrothieno[2,3-d]pyrimidine-6-carboxylate], the negative logarithm of the IC50 (pIC50) against hACC2 and on fACC2 was 8.52 to 9.52 throughout. The MIC (with C. albicans ATCC 90028; in test [1]) was 2.1 to 4 µg/mL (≈ 3.48 to 6.64 µM) throughout.

Consider `CCOC(=O)c1sc2c(c1C)c(=O)n([C@@H](C)C(=O)N(C)C(C)C)c(=O)n2C[C@H](OCCC#N)c1cc(F)ccc1OC` [Compound I-28, ethyl 1-((R)-2-(2-cyanoethoxy)-2-(5-fluoro-2-methoxy-phenyl)-ethyl)-3-((S)-1-(isopropyl(methyl)amino)-1-oxopropan-2-yl)-5-methyl-2,4-dioxo-1,2,3,4-tetrahydrothieno[2,3-d]pyrimidine-6-carboxylate], for which the pIC50 at hACC2 was 8.00 to 8.52; at fACC2 it was 8.52 to 9.52. Further, the minimum inhibitory concentration (MIC) (in the test with C. albicans ATCC 90028; in test [1]) was 2.1 to 4 µg/mL (≈ 3.48 to 6.64 µM) in each case.

For the compound `CCNC(=O)C(C)(C)n1c(=O)c2c(C)c(C(=O)OCC)sc2n(C[C@H](OCCC#N)c2cc(F)ccc2OC)c1=O` [Compound I-29, (R)-ethyl 1-(2-(2-cyanoethoxy)-2-(5-fluoro-2-methoxy-phenyl)ethyl)-3-(1-(ethylamino)-2-methyl-1-oxopropan-2-yl)-5-methyl-2,4-dioxo-1,2,3,4-tetrahydrothieno[2,3-d]pyrimidine-6-carboxylate], the negative logarithm of the IC50 (pIC50) at hACC2 was 8.00 to 8.52; on fACC2 it was 8.52 to 9.52. Besides, the minimal inhibitory concentration (MIC) lay in the range of 1.1 to 2 µg/mL (≈ 1.87 to 3.4 µM) in the test with C. albicans ATCC 90028 and 2.1 to 4 µg/mL (≈ 3.57 to 6.8 µM) in test [1].

Regarding `CCOC(=O)c1sc2c(c1C)c(=O)n(C(C)(C)C(=O)NC(C)C)c(=O)n2C[C@H](OCCC#N)c1ccccc1OC` [Compound I-31, ethyl (R)-1-(2-(2-cyanoethoxy)-2-(2-methoxyphenyl)ethyl)-3-(1-(isopropylamino)-2-methyl-1-oxopropan-2-yl)-5-methyl-2,4-dioxo-1,2,3,4-tetrahydrothieno[2,3-d]pyrimidine-6-carboxylate], the pIC50 is 8.00 to 8.52 against hACC2 and 8.52 to 9.52 at fACC2. The values for the MIC (with C. albicans ATCC 90028; in test [1]) were 0.25 to 1 µg/mL (≈ 0.428 to 1.71 µM) and 1.1 to 2 µg/mL (≈ 1.88 to 3.42 µM), respectively.

As for `CCNC(=O)C(C)(C)n1c(=O)c2c(C)c(C(=O)OCC)sc2n(C[C@H](OCCC#N)c2ccccc2OC)c1=O` [Compound I-32, ethyl (R)-1-(2-(2-cyanoethoxy)-2-(2-methoxyphenyl)ethyl)-3-(1-(ethylamino)-2-methyl-1-oxopropan-2-yl)-5-methyl-2,4-dioxo-1,2,3,4-tetrahydrothieno[2,3-d]pyrimidine-6-carboxylate], the values for the negative logarithm of the IC50 (pIC50) on hACC2 and against fACC2 were 8.00 to 8.52 and 8.52 to 9.52, respectively. For the same compound, the minimal inhibitory concentration (MIC) was 2.1 to 4 µg/mL (≈ 3.68 to 7.01 µM) against C. albicans ATCC 90028 and greater than 4.1 µg/mL in test [1].

Take `CCOC(=O)c1sc2c(c1C)c(=O)n(C(C)(C)C(=O)NC(C)C)c(=O)n2C[C@H](OCC#N)c1cc(F)ccc1OC` [Compound I-33, ethyl (R)-1-(2-(cyanomethoxy)-2-(5-fluoro-2-methoxy-phenyl)ethyl)-3-(1-(isopropylamino)-2-methyl-1-oxopropan-2-yl)-5-methyl-2,4-dioxo-1,2,3,4-tetrahydrothieno[2,3-d]pyrimidine-6-carboxylate]: the negative-log IC50 (pIC50) at hACC2 was 8.00 to 8.52; on fACC2, 8.52 to 9.52. The MIC lay within 0.25 to 1 µg/mL (≈ 0.425 to 1.7 µM) in the test on C. albicans ATCC 90028 and 2.1 to 4 µg/mL (≈ 3.57 to 6.8 µM) in test [1].

On to `CCOC(=O)c1sc2c(c1C)c(=O)n(C(C)(C)C(=O)NC(C)C)c(=O)n2C[C@H](OC[C@H](C)C#N)c1cc(F)ccc1OC` [Compound I-34, ethyl 1-((R)-2-((R)-2-cyanopropoxy)-2-(5-fluoro-2-methoxyphenyl)ethyl)-3-(1-(isopropylamino)-2-methyl-1-oxopropan-2-yl)-5-methyl-2,4-dioxo-1,2,3,4-tetrahydrothieno[2,3-d]pyrimidine-6-carboxylate], for which the pIC50 on hACC2 is 7.40 to 8.00; against fACC2, 8.52 to 9.52. Besides, the minimal inhibitory concentration (MIC) against C. albicans ATCC 90028 is 0.25 to 1 µg/mL (≈ 0.405 to 1.62 µM); in test [1], 2.1 to 4 µg/mL (≈ 3.41 to 6.49 µM).

With `CCOC(=O)c1sc2c(c1C)c(=O)n(C(C)(C)C(=O)NC(C)C)c(=O)n2C[C@H](OC[C@@H](C)C#N)c1cc(F)ccc1OC` [Compound I-35, ethyl 1-((R)-2-((S)-2-cyanopropoxy)-2-(5-fluoro-2-methoxyphenyl)ethyl)-3-(1-(isopropylamino)-2-methyl-1-oxopropan-2-yl)-5-methyl-2,4-dioxo-1,2,3,4-tetrahydrothieno[2,3-d]pyrimidine-6-carboxylate], the results for the pIC50 against hACC2 and on fACC2 were 8.00 to 8.52 and 8.52 to 9.52, respectively. Moreover, the minimum inhibitory concentration (MIC) (against C. albicans ATCC 90028; in test [1]) was 0.25 to 1 µg/mL (≈ 0.405 to 1.62 µM) each time.

Regarding `CCOC(=O)c1sc2c(c1C)c(=O)n(C(C)(C)C(=O)NC(C)C)c(=O)n2C[C@H](OCCS(C)(=O)=O)c1cc(F)ccc1OC` [Compound I-36, ethyl (R)-1-(2-(5-fluoro-2-methoxyphenyl)-2-(2-(methylsulfonyl)ethoxy)ethyl)-3-(1-(isopropylamino)-2-methyl-1-oxopropan-2-yl)-5-methyl-2,4-dioxo-1,2,3,4-tetrahydrothieno[2,3-d]pyrimidine-6-carboxylate], the values for the negative logarithm of the IC50 (pIC50) against hACC2 and against fACC2 were 7.40 to 8.00 and 8.52 to 9.52, respectively. Also, the minimum inhibitory concentration (MIC) lay within 0.25 to 1 µg/mL (≈ 0.381 to 1.52 µM) against C. albicans ATCC 90028 and 2.1 to 4 µg/mL (≈ 3.2 to 6.1 µM) in test [1].

A word on the pIC50: it is −log10 of the IC50, conventionally taken in molar units. A low value points to a high IC50. As usually defined, the MIC is the smallest concentration in the dilution series that meets the test's criterion for growth inhibition. High values mean a need for much substance, low ones inhibition by little substance.

The values are drawn from patent US11098055B2, “Ester ACC inhibitors and uses thereof” (Gilead Apollo, LLC, priority 2015, dated 2021).
